US9073855B2, “BCL-2 selective apoptosis-inducing agents for the treatment of cancer and immune diseases” (AbbVie Inc., priority 2008, dated 2015)
Read-outs that look alike come from different tables or passages of the source.

Experiments:
Canine platelets = experiment: Platelet cell viability assay (platelet-rich plasma, Cell Titer Glo); format: cell-based; settings: Canis lupus familiaris, 5 h, isolated canine platelets ex vivo, five hours at 37° C.
How it was run: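 Isolated canine platelets were incubated ex vivo with a range of compound concentrations. After 20 min equilibration at room temperature, viability was measured by Cell Titer Glo luminescence.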

FL5.12/Bcl-2 cells = experiment: FL5.12/Bcl-2 cell viability assay under IL-3 withdrawal (CellTitre Glo); format: cell-based, murine; settings: Mus musculus, IL-3 withdrawn 48 hrs, then 24 hrs with compound
How it was run: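 Bcl-2-overexpressing murine FL5.12 transfectants underwent IL-3 removal for 48 hrs before a 24 hr compound treatment. Cell viability was quantified with CellTitre Glo.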

circulating platelets [1] = settings: following injection into C57BL/6 mice; cited from earlier work
circulating platelets [2] = settings: following injection in beagle canines; cited from earlier work
GST-Bcl-2 = GST-Bcl-2 (Homo sapiens, UniProt P10415); experiment: TR-FRET binding assay, GST-Bcl-2 with F-Bak peptide probe; settings: TR-FRET Binding Affinity, GST-Bcl-2, F-Bak peptide probe
How it was run: (§1)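 Competitive TR-FRET: GST-fusion protein, fluorescent Bak peptide probe and Tb-labelled anti-GST antibody incubated with compound dilution series (starting 50 μM as 2× stock, 10% DMSO) for 3 h at RT. Excitation 340/35 nm; Ki derived via Wang's exact competitive-binding equation.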

GST-Bcl-XL = GST-Bcl-XL (Homo sapiens, UniProt Q07817); experiment: TR-FRET binding assay, GST-Bcl-XL with F-Bak peptide probe; settings: TR-FRET Binding Affinity, GST-Bcl-XL, F-Bak peptide probe
How it was run: as §1

Chain of GST-Bcl-2 (P10415 whole entry, the tested form may be a part): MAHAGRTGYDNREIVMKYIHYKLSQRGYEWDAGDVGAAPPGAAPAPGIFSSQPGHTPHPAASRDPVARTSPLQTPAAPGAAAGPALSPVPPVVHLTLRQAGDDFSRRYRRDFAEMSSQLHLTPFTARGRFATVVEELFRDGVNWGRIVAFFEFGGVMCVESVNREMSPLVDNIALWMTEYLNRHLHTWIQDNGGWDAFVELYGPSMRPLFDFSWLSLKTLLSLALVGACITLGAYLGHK
Chain of GST-Bcl-XL (Q07817 whole entry): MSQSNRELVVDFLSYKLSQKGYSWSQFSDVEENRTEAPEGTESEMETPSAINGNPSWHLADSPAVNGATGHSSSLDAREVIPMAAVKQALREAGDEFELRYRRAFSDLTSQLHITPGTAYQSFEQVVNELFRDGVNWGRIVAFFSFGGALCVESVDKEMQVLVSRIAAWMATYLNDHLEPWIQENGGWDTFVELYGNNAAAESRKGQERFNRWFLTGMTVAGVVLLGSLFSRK

Structure (SMILES)	EC50 (Canine platelets)	EC50 (FL5.12/Bcl-2 cells)	effect on circulating platelets (circulating platelets [1])	effect on circulating platelets (circulating platelets [2])	Ki (GST-Bcl-2)	Ki (GST-Bcl-XL)
CN(C)CC[C@H](CSc1ccccc1)Nc1ccc(S(=O)(=O)NC(=O)c2ccc(N3CCN(Cc4ccccc4-c4ccc(Cl)cc4)CC3)cc2)cc1[N+](=O)[O-] [ABT-737, 4-(4-((4′-chloro-1,1′-biphenyl-2-yl)methyl)piperazin-1-yl)-N-((4-(((1R)-3-(dimethylamino)-1-((phenylthio)methyl)propyl)amino)-3-nitrophenyl)sulfonyl)benzamide, reference compound]	282 nM	25 nM	rapid, concentration dependant decrease in circulating platelets	rapid, concentration dependant decrease in circulating platelets	–	–
CC1(C)CCC(CN2CCN(c3ccc(C(=O)NS(=O)(=O)c4ccc(NCCCN5CCCC5)c([N+](=O)[O-])c4)c(Oc4cccc5[nH]ccc45)c3)CC2)=C(c2ccc(F)cc2)C1 [Example 73, 4-(4-{[2-(4-fluorophenyl)-4,4-dimethylcyclohex-1-en-1-yl]methyl}piperazin-1-yl)-2-(1H-indol-4-yloxy)-N-({3-nitro-4-[(3-pyrrolidin-1-ylpropyl)amino]phenyl}sulfonyl)benzamide]	23200 nM	140 nM	–	–	1.7 nM	16.9 nM
CN(C)CCCNc1ccc(S(=O)(=O)NC(=O)c2ccc(N3CCN(CC4=C(c5ccc(Cl)cc5)CC(C)(C)CC4)CC3)cc2Oc2ccc3[nH]ccc3c2)cc1C(F)(F)F [Example 171, 4-(4-{[2-(4-chlorophenyl)-4,4-dimethylcyclohex-1-en-1-yl]methyl}piperazin-1-yl)-N-{[4-{[3-(dimethylamino)propyl]amino}-3-(trifluoromethyl)phenyl]sulfonyl}-2-(1H-indol-5-yloxy)benzamide]	> 50000 nM	276 nM	–	–	2.94 nM	52.1 nM
CN1CCN(Nc2ccc(S(=O)(=O)NC(=O)c3ccc(N4CCN(CC5=C(c6ccc(Cl)cc6)CC(C)(C)CC5)CC4)cc3Oc3ccc4[nH]ccc4c3)cc2[N+](=O)[O-])CC1 [Example 174, 4-(4-{[2-(4-chlorophenyl)-4,4-dimethylcyclohex-1-en-1-yl]methyl}piperazin-1-yl)-2-(1H-indol-5-yloxy)-N-({4-[(4-methylpiperazin-1-yl)amino]-3-nitrophenyl}sulfonyl)benzamide]	19500 nM	11 nM	–	–	0.105 nM	62.1 nM
O=C(NS(=O)(=O)c1ccc(NCCCN2CCCC2)c([N+](=O)[O-])c1)c1ccc(N2CCN(CC3=C(c4ccc(Cl)cc4)CCC3)CC2)cc1Oc1cccc2[nH]ccc12 [Example 143, 4-(4-{[2-(4-chlorophenyl)cyclopent-1-en-1-yl]methyl}piperazin-1-yl)-2-(1H-indol-4-yloxy)-N-({3-nitro-4-[(3-pyrrolidin-1-ylpropyl)amino]phenyl}sulfonyl)benzamide]	> 50000 nM	199 nM	–	–	2.23 nM	75.4 nM
CN1CCC(CNc2ccc(S(=O)(=O)NC(=O)c3ccc(N4CCN(CC5=C(c6ccc(Cl)cc6)CC(C)(C)CC5)CC4)cc3Oc3ccc4[nH]ccc4c3)cc2[N+](=O)[O-])(N(C)C)CC1 [Example 109, 4-(4-{[2-(4-chlorophenyl)-4,4-dimethylcyclohex-1-en-1-yl]methyl}piperazin-1-yl)-N-{[4-({[4-(dimethylamino)-1-methylpiperidin-4-yl]methyl}amino)-3-nitrophenyl]sulfonyl}-2-(1H-indol-5-yloxy)benzamide]	> 50000 nM	36 nM	–	–	0.161 nM	> 660 nM
CC1(C)CCC(CN2CCN(c3ccc(C(=O)NS(=O)(=O)c4ccc(NCCCN5CCOCC5)c([N+](=O)[O-])c4)c(Oc4ccc5[nH]ccc5c4)c3)CC2)=C(c2ccc(Cl)cc2)C1 [Example 52, 4-(4-{[2-(4-chlorophenyl)-4,4-dimethylcyclohex-1-en-1-yl]methyl}piperazin-1-yl)-2-(1H-indol-5-yloxy)-N-({4-[(3-morpholin-4-ylpropyl)amino]-3-nitrophenyl}sulfonyl)benzamide]	> 50000 nM	16 nM	–	–	0.239 nM	79.8 nM
CN1CCN(CCCNc2ccc(S(=O)(=O)NC(=O)c3ccc(N4CCN(CC5=C(c6ccc(Cl)cc6)CC(C)(C)CC5)CC4)cc3Oc3ccc4[nH]ccc4c3)cc2[N+](=O)[O-])CC1 [Example 96, 4-(4-{[2-(4-chlorophenyl)-4,4-dimethylcyclohex-1-en-1-yl]methyl}piperazin-1-yl)-2-(1H-indol-5-yloxy)-N-[(4-{[3-(4-methylpiperazin-1-yl)propyl]amino}-3-nitrophenyl)sulfonyl]benzamide]	22300 nM	11 nM	–	–	0.047 nM	8.78 nM
